pIC50: −log10 of the molar value. Values after ≈ are worked out from the molar mass of the structure shown. Where two headings read alike, the source gives them in different places.
What was measured:
LYSA solubility = format: physicochemical; details: for solubility thermodynamic: 0.05 M phosphate buffer, pH 6.5, aqueous buffer, thermodynamic from solid
Method: LYSA solubility assay is used to determine the aqueous solubility of a compound. Samples were prepared in duplicate from 10 mM DMSO stock solution. […] After one night, the solutions were filtered using a microtiter filter plate. Then the filtrate and its 1/10 dilution were analyzed by HPLC-UV.

[1] = tested on: Salmonella typhimurium tester strains (TA1535, TA97, TA98, TA100, and TA102); assay: Ames microsuspension assay; format: cell-based; details: five strains, absence and presence of S9
Method: The Ames microsuspension assay examines if a compound causes DNA mutations. The method was based on a modified pre-incubation version described by Kado et al (see references: B. N. Ames, J. McCann, E. Yamasaki, Mutation Res. 1975, 31, 347-364 N.Y. Kado, D. Langley, and E. Eisenstadt, Mutation Res. 1983, 121, 25-32). Five Salmonella typhimurium tester strains (TA1535, TA97, TA98, TA100, and TA102) were treated with the test compound in absence and in presence of an exogenous metabolic activation system (S9). The bacteria were pre-incubated for 1 h, the pre-incubation volume is 210 μL (100 μL of overnight culture, 100 μL of S9 mix (10% S9) or 100 μL phosphate buffer, and 10 μL test compound solution). The overnight cultures were resuspended for the test in cold phosphate buffer. The S9 mix contains potassium chloride, magnesium chloride, sodium phosphate buffered saline, NADP^+ and glucose-6-phosphate. The test tubes are incubated and shaken for 60 minutes at 37° C. 2.2 mL soft agar supplemented with L-histidine and biotin was added afterwards and the content of the tubes were mixed and poured on Vogel-Bonner minimal agar plates.
Three replicate plates for the test compound and negative control or two replicate plates for the positive controls were incubated at 37° C., upside down, for 2 days. Colonies were counted electronically using an automatic image analysis system after having inspected the background lawn for signs of toxicity.
S9 is an in vitro metabolic system which is obtained from liver homogenates by centrifuging them at 9000 g for 20 minutes. It contains CYP450 isoforms, phase-II metabolic enzymes, etc. In the Ames microsuspension assay test, S9 is used to assess mutagenicity of compounds, some of which require metabolic activation to become mutagenic.
Criteria of the Ames microsuspension assay: a positive result is defined as a reproducible, dose-related increase in the number of revertant colonies in at least one of the strains. For TA1535 and TA98, the positive threshold is a 2-fold increase over control. For TA97, TA100 and TA102, the threshold is a 1.5-fold increase.

hERG channel = hERG channel (Homo sapiens (Human), UniProt Q12809); assay: hERG channel inhibition assay (patch-clamp, CHOhERG cells); format: cell-based
Chain of hERG channel (Q12809 whole entry): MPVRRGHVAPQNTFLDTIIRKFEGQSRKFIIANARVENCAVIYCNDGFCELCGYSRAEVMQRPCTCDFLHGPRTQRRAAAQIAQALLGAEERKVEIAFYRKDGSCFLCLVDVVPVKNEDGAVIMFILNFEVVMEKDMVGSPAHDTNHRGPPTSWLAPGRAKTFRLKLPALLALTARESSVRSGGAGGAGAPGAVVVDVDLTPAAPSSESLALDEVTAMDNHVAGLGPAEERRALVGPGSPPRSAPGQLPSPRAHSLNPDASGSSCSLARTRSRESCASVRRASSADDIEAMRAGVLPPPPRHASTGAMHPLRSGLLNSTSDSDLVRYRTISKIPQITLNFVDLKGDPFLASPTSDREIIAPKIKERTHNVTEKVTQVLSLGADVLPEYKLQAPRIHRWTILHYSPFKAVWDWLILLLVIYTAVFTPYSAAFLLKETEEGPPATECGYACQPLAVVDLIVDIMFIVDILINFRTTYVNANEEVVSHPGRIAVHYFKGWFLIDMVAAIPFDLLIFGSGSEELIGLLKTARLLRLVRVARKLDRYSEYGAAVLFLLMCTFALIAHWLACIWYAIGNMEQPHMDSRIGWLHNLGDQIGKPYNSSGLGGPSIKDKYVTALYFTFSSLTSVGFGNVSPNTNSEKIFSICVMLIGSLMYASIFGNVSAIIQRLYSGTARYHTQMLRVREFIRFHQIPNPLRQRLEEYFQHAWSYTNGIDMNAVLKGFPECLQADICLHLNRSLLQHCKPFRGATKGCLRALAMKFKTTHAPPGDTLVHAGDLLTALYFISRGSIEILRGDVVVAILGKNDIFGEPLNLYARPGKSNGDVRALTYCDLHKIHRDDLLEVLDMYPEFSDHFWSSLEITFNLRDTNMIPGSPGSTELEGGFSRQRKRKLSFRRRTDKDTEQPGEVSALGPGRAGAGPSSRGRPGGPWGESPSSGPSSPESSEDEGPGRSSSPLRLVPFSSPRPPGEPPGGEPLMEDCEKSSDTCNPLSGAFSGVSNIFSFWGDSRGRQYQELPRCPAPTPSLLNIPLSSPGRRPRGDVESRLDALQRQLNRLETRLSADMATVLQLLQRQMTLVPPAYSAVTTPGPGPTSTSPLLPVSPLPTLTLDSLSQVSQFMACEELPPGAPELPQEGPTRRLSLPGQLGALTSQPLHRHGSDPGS
Method: The hERG K^+ channels were cloned in humans and stably expressed in a CHO (Chinese hamster ovary) cell line. CHOhERG cells were used for patch-clamp (voltage-clamp, whole-cell) experiments. Cells were stimulated by a voltage pattern to activate hERG channels and conduct IKhERG currents (rapid delayed outward rectifier potassium current of the hERG channel). […] Thereafter, the test compound was added to the preparation at increasing concentrations. For each concentration, an attempt was made to reach a steady-state effect, usually, this was achieved within 3-10 min at which time the next highest concentration was applied. The amplitude and kinetics of IKhERG are recorded in each concentration of the drug which were compared to the control values (taken as 100%). (references: Redfern W S, Carlsson L, Davis A S, Lynch W G, MacKenzie I, Palethorpe S, Siegl P K, Strang I, Sullivan A T, Wallis R, Camm A J, Hammond T G. 2003; Relationships between preclinical cardiac electrophysiology, clinical QT interval prolongation and torsade de pointes for a broad range of drugs: evidence for a provisional safety margin in drug development. Cardiovasc. Res. 58:32-45, Sanguinetti M C, Tristani-Firouzi M. 2006; hERG potassium channels and cardiac arrhythmia. Nature 440:463-469, Webster R, Leishman D, Walker D. 2002; Towards a drug concentration effect relationship for QT prolongation and torsades de pointes. Curr. Opin. Drug Discov. Devel. 5:116-26).

[2] = Metabolic stability in human liver microsomes; details: 1 μM test compound, 0.5 mg/mL microsomal protein; 6.15 mL/min/kg is the limitation of assay sensitivity
Summary of the method: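 Test compound at 1 μM with 0.5 mg/mL microsomal protein in 100 mM potassium phosphate, pH 7.4, 37 °C, 10 min preincubation, reaction started with NADPH regenerating system. Sampled at 0, 3, 6, 9, 15 and 30 min, quenched with cold ACN, remaining parent by LC-MS/MS. No-NADPH controls at 0 and 30 min.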

[3] = human, CHO cells stably expressing hERG, read-out: hERG IC20

SMILES	solubility thermodynamic (LYSA solubility) [µg/mL]	Ames result [1]	Safety ratio (hERG IC20/EC50) (hERG channel)	IC20 (hERG channel; read-out: hERG IC20) [µM]	LYSA (LYSA solubility; 0.05 M phosphate buffer (pH 6.5)) [µg/mL]	Human Liver Microsome Clearance [2] [mL/min/kg]	IC20 (hERG channel; [3]) [µM]	pIC50 (hERG channel; read-out: hERG IC50)	pIC50 (hERG channel)	IC20 (hERG channel; human) [µM]
CCCS(=N)(=O)c1nc(N)c2[nH]c(=O)n(Cc3ccccc3)c2n1 (single isomer, unassigned) [Example 4-A, 6-Amino-9-benzyl-2-(propylsulfonimidoyl)-7H-purin-8-one]	56 (≈ 162 µM)	negative	>149	> 10						
CCCS(=N)(=O)c1nc(N)c2[nH]c(=O)n(Cc3ccccc3)c2n1 (single isomer, unassigned) [Example 4-B, 6-Amino-9-benzyl-2-(propylsulfonimidoyl)-7H-purin-8-one]		negative	>116	> 10	50					
CCCS(=N)(=O)c1nc(N)c2[nH]c(=O)n(Cc3ccc(C)cc3)c2n1 (single isomer, unassigned) [Example 29-A, 6-Amino-2-(propylsulfonimidoyl)-9-(p-tolylmethyl)-7H-purin-8-one]	6 (≈ 16.6 µM)	negative	>526			<6.15				
CCS(=N)(=O)c1nc(N)c2[nH]c(=O)n(Cc3ccc(Cl)cc3)c2n1 (single isomer, unassigned) [Example 70-A, 6-Amino-9-[(4-chlorophenyl)methyl]-2-(ethylsulfonimidoyl)-7H-purin-8-one]		negative				<6.15				
CCS(=N)(=O)c1nc(N)c2[nH]c(=O)n(Cc3ccc(Cl)cc3)c2n1 (single isomer, unassigned) [Example 70-B, 6-Amino-9-[(4-chlorophenyl)methyl]-2-(ethylsulfonimidoyl)-7H-purin-8-one]	5 (≈ 13.6 µM)	negative				<6.15				
CCS(=N)(=O)c1nc(N)c2[nH]c(=O)n(Cc3ccc(C)cc3)c2n1 (single isomer, unassigned) [Example 71-A, 6-Amino-2-(ethylsulfonimidoyl)-9-(p-tolylmethyl)-7H-purin-8-one]	13 (≈ 37.5 µM)	negative	>75			<6.15				
CCCS(=N)(=O)c1nc(N)c2[nH]c(=O)n(Cc3ccccc3)c2n1 (stereo not shown) [Example 4, 6-Amino-9-benzyl-2-(propylsulfonimidoyl)-7H-purin-8-one]	21 (≈ 60.6 µM)	negative	>154			<6.15	> 10	< 4.70		
CCCS(=N)(=O)c1nc(N)c2[nH]c(=O)n(Cc3ccc(Cl)cc3)c2n1 (stereo not shown) [Example 9, 6-Amino-9-[(4-chlorophenyl)methyl]-2-(propylsulfonimidoyl)-7H-purin-8-one]		negative	>833				> 10	< 4.70		
CCCS(=N)(=O)c1nc(N)c2[nH]c(=O)n(Cc3ccc(F)c(F)c3)c2n1 (stereo not shown) [Example 27, 6-Amino-9-(3,4-difluorophenylmethyl)-2-(propylsulfonimidoyl)-7H-purin-8-one]	7 (≈ 18.3 µM)	negative	>278				> 10	< 4.70		
CCCS(=N)(=O)c1nc(N)c2[nH]c(=O)n(Cc3ccc(C)nc3)c2n1 (stereo not shown) [Example 34, 6-Amino-9-[(6-methyl-3-pyridyl)methyl]-2-(propylsulfonimidoyl)-7H-purin-8-one]		negative				<6.15			< 4.70	> 10
CCCS(=N)(=O)c1nc(N)c2[nH]c(=O)n(Cc3ccc(C(=O)O)cc3)c2n1 (stereo not shown) [Example 39, 4-[[6-Amino-8-oxo-2-(propylsulfonimidoyl)-7H-purin-9-yl]methyl]benzoic acid]	> 520	negative	>59			<6.15	> 10	< 4.70		
